We go through 7 molecules from patent US8871751B2, “Compositions and methods relating to nuclear hormone and steroid hormone receptors including inhibitors of estrogen receptor alpha-mediated gene expression and inhibition of breast cancer” (The Board of Trustees of the University of Illinois, priority 2008, dated 2014).

Entries after “also recorded” stand apart in the source; their conditions may differ. Read-outs that look alike come from different tables or passages of the source.

Data set [1] deals with ERα negative MDA-MB-231 cells. The experiment in a line: MDA-MB-231 cell growth / toxicity assay (MTS). The format is cell-based, human. To be noted: for effect on growth of MDA-MB-231 cells (toxicity): up to 30 μM, Example 1 assays (1 day / 5 days); for effect on growth of ER negative MDA-MB-231 cells: all concentrations. The protocol: ERα negative MDA-MB-231 human breast cancer cells were used to test for generalized toxicity of the test compounds. To parallel the reporter gene assays in stably transfected T47D breast cancer cells, 5,000 MDA-MB-231 cells per well were plated in a 96 well plate. The cells were maintained in the medium described above for the T47D cells. One day after plating, the same concentration of test compound used in the reporter gene assay (up to 30 μM) was added. After 24 h the MTS assay was carried out as described above. A more stringent toxicity assay parallels the assay for inhibition of estrogen-dependent growth of BG-1 cells. 250 MDA-MB-231 cells were plated per well and maintained and assayed as described for the BG-1 cells. Several compounds without detectable toxicity in the 24-h assay inhibited MDA-MB-231 cell growth in the 5-6 day assay.
Assays for Cell Growth and Viability. Cells were maintained in the media listed above containing CD-treated serum for at least 4 days prior to the experiment. To minimize cell aggregation, MCF-7 cells were harvested in 10 mM Hepes, pH 7.4, 1 mM EDTA. Other cell lines were harvested in trypsin-EDTA. 1,000 cells were plated into each well of a 96 well plate. For slow growing ZR-75 cells, 2,000 cells were plated/well. The cells were maintained in medium containing CD-treated serum for 24 hours. At 24 hours the medium was changed and E2 and DMSO vehicle or TPSF in DMSO was added. The medium was replaced after 2 days (except for BT474 cells whose medium was not changed). After 4 days viable cells were determined using a cell viability test, Promega CellTiter 96 Aqueous One Solution Cell Proliferation Assay (MTS) (Promega, Wis.).

Another data set has as its target T1, ERα (Homo sapiens, UniProt P03372).
T1 sequence (P03372 1-595): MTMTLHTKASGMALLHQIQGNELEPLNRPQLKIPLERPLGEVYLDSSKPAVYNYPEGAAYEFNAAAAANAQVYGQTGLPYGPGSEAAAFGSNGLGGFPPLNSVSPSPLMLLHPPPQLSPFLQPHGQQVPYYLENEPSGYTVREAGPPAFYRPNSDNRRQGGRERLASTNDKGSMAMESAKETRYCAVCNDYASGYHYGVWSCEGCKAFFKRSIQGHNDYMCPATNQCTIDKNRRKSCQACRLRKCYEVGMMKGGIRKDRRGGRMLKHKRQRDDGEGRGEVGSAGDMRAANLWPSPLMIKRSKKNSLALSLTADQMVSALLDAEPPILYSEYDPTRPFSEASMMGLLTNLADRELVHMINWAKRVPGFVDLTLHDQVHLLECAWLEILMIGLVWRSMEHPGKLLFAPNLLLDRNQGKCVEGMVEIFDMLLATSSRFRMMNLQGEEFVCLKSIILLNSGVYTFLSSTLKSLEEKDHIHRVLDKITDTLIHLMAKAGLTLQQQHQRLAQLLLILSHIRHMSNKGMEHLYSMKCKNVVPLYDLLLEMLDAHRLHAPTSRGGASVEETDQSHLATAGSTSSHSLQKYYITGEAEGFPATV
The experiment in a line: (ERE)3-luciferase reporter gene assay in T47D-KBluc cells. Details: Using a stably transfected breast cancer cell line that expresses endogenous ERα; endogenous in cells; host or cells: T47D-KBluc. The format is cell-based. How it is done: The T47D-KBluc cells stably express an (ERE)3-luciferase reporter gene (38). […] Four days before E2 induction, the cells were switched to the above medium, with 10% 2× charcoal-dextran-treated calf serum instead of FBS. 200,000 cells/well were transferred to each well of a 24-well plate. After 24 h the indicated concentrations of the test compounds were added in DMSO and E2 was added to 20 pM. After 24 h cells were washed once in PBS, and 150 μl 1× Passive Lysis Buffer (Promega, Madison Wis.) was used to lyse the cells. Luciferase activity was determined using firefly luciferase reagents from Promega (Madison, Wis.).
Reporter Gene Assays. […] AR was assayed in stably transfected HeLa cells and GR was assayed in stably transfected T47D cells maintained as described above. Four days before each experiment the cells were switched to medium containing CD-treated serum as described above. The HeLaAR cells were plated at 100,000 cells/well and the T47D/A1-2 and T47D-KBluc cells were plated at 200,000 cells/well in 1 ml of their respective media in 24-well plates. After 24 hours the indicated concentrations of E2, dihydrotestosterone (DHT) or dexamethasone (Dex) and DMSO vehicle, with or without TPSF, were added to each well. After 24 hours, the cells were washed once in phosphate buffered saline and lysed using 100 μl of 1× Passive Lysis Buffer (Promega, Madison Wis.). Luciferase activity was determined using BrightGlo firefly luciferase reagent from Promega (Madison, Wis.).
A general note: A reporter such as luciferase makes a cellular process visible.

[2] abbreviates: T47D-KBluc cells, 20 pM E2, 24 h, read-out: IC50 for inhibition of E2 dependent ERα transactivation, (ERE)3-luciferase.

With `Cn1c(=O)c2nc(CSCc3ccccc3)[nH]c2n(C)c1=O` [Compound 95910, 8-Benzylsulfanylmethyl-1,3-dimethyl-3,7-dihydro-purine-2,6-dione], the “effect on growth of MDA-MB-231 cells (toxicity)” value in data set [1] is on record as “No toxicity”; in data set [1] (listed as TPBM), “had no effect; also recorded: no inhibition”.

On to `Cn1c(=O)c2[nH]c(SC3CCCCC3)nc2n(C)c1=S` [Compound 95899, 8-Cyclohexylsulfanyl-1,3-dimethyl-2-thioxo-1,2,3,7-tetrahydro-purin-6-one], for which the “ER at 10 μM” value at ERα is 36.

As for `CN1CCC(C#N)c2ccccc21` (stereo not shown) [Compound 1529], the “reduction of growth of MDA-MB-231 cells” value in data set [1] (30 μM, 5 days) is 50-60%. In addition, the “effect on growth of MDA-MB-231 cells” value in data set [1] (1-20 μM, 5 days) was “unaffected”. The IC50 at ERα (setting [2]) was found to be 22000 nM.

In the case of `Cn1c(=S)c2[nH]c(SCCCC(=O)c3ccc(F)cc3)nc2n(C)c1=O` [TPSF, Butyrophenone, p-fluoro-4-(1,2,3,6,-tetrahydro-1,3-dimethyl-2-oxo-6-thionopurin-8-ylthio)], the half-maximal inhibitory concentration (IC50) was > 30000 nM in data set [1] (Homo sapiens, MDA-MB-231, 96 h, 4 days, MTS, read-out: IC50 for inhibition of MDA-MB-231 (ER Neg. cells) cell growth); 450 nM at ERα (PI-9 in MCF-7 and (ERE)3-Luc in T47D, read-out: average IC50 for inhibition of the two ER-regulated genes). In data set [1] (all concentrations tested, including 30 μM, 4 days), the “inhibition of growth of MDA-MB-231 cells” value was 0%. Besides, the “effect on growth of ER negative MDA-MB-231 cells” value is “did not inhibit growth; also recorded: lacks toxicity” in data set [1] (including 30 μM, 4 days) and “did not inhibit growth; also recorded: does not inhibit growth” in data set [1] (including 30 μM, 4 days, listed as 97998/TPSF). In addition, the “concentrations necessary to inhibit AR and GR relative to average IC50 for the two ER-regulated genes (higher)” value on ERα was 20-70 fold. Also, the “potency as ERα inhibitor relative to TPBM (more potent)” value at ERα is > 15 fold.

As to `Cn1c(=O)c2[nH]c(C3CC4CCC3C4)nc2n(C)c1=O` (stereo not shown) [Compound 101807, 8-Bicyclo[2.2.1]hept-2-yl-1,3-dimethyl-3,7-dihydro-purine-2,6-dione], the “ER at 10 μM” value on ERα was found to be 0.

For the molecule `CN(C)CCCn1c2c3ccccc3ccc2c2oc(=O)c3ccccc3c21` [Compound 638432], the IC50 at ERα (setting [2]) was determined as 800 nM.

On to `CCCSc1nc2c([nH]1)c(=O)n(C)c(=S)n2C` [Compound 95869, 1,3-Dimethyl-8-propylsulfanyl-2-thioxo-1,2,3,7-tetrahydro-purin-6-one], for which, at ERα, the “ER at 10 μM” value is reported as 20.

Usually IC50 stands for the concentration that gives 50% inhibition.
